Data taken from US20230219904A1 (SYNGENTA CROP PROTECTION AG, priority 2020, published 2023).

Assays:
Format in all cases: in vivo
Settings in all cases: evaluated after 13 days
[1] = tested on: Ipomoea hederacea (IPOHE); experiment: Post-emergence herbicidal glasshouse test (Table B1)
Outline: (§1)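 Pre: spray 1 d after sowing; post: spray after 8 d growth. Rate 500 g/h (default); vehicle acetone/water 50:50, 0.5% Tween 20. Glasshouse 24/16° C, 14 h light, 65% humidity. Readout % damage at 13 d, 5-point scale.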

[2] = tested on: Echinochloa crus-galh (ECHCG); experiment: as above
Outline: as §1

Setaria faberi (SETFA) [3] = experiment: as above
Outline: as §1

[4] = tested on: Amaranthus retoflexus (AMARE); experiment: as above
Outline: as §1

[5] = tested on: Abutilon theophrasti (ABUTH); experiment: as above
Outline: as §1

[6] = tested on: Ipomoea hederacea (IPOHE); experiment: Pre-emergence herbicidal glasshouse test (Table B1)
Outline: as §1

[7] = tested on: Echinochloa crus-galh (ECHCG); experiment: as above
Outline: as §1

Setaria faberi (SETFA) [8] = experiment: as above
Outline: as §1

[9] = tested on: Amaranthus retoflexus (AMARE); experiment: as above
Outline: as §1

[10] = tested on: Abutilon theophrasti (ABUTH); experiment: as above
Outline: as §1

| SMILES | POST Application IPOHE, percentage damage on five-point scale ([1]; applied at 500 g/h) | POST Application ECHCG, percentage damage on five-point scale ([2]; applied at 500 g/h) | POST Application SETFA, percentage damage on five-point scale (Setaria faberi (SETFA) [3]; applied at 500 g/h) | POST Application AMARE, percentage damage on five-point scale ([4]; applied at 500 g/h) | POST Application ABUTH, percentage damage on five-point scale ([5]; applied at 500 g/h) | PRE Application IPOHE, percentage damage on five-point scale ([6]; applied) | PRE Application ECHCG, percentage damage on five-point scale ([7]; applied at 500 g/h) | PRE Application SETFA, percentage damage on five-point scale (Setaria faberi (SETFA) [8]; applied at 500 g/h) | PRE Application AMARE, percentage damage on five-point scale ([9]; applied at 500 g/h) | PRE Application ABUTH, percentage damage on five-point scale ([10]; applied at 500 g/h) | POST Application IPOHE, percentage damage on five-point scale ([1]; applied at 125 g/ha) | POST Application ECHCG, percentage damage on five-point scale ([2]; applied at 125 g/ha) | POST Application SETFA, percentage damage on five-point scale (Setaria faberi (SETFA) [3]; applied at 125 g/ha) | POST Application AMARE, percentage damage on five-point scale ([4]; applied at 125 g/ha) | POST Application ABUTH, percentage damage on five-point scale ([5]; applied at 125 g/ha) | PRE Application IPOHE, percentage damage on five-point scale ([6]; applied at 125 g/ha) | PRE Application ECHCG, percentage damage on five-point scale ([7]; applied at 125 g/ha) | PRE Application SETFA, percentage damage on five-point scale (Setaria faberi (SETFA) [8]; applied at 125 g/ha) | PRE Application AMARE, percentage damage on five-point scale ([9]; applied at 125 g/ha) | PRE Application ABUTH, percentage damage on five-point scale ([10]; applied at 125 g/ha) |
| --- | --- | --- | --- | --- | --- | --- | --- | --- | --- | --- | --- | --- | --- | --- | --- | --- | --- | --- | --- | --- |
| COc1ccc(C(=O)Nc2nnnn2C)c(Cl)c1NC(C)=O [Compound 1.030, 3-acetamido-2-chloro-4-methoxy-N-(1-methyltetrazol-5-yl)benzamide] | 4 (4=60-79%) | 5 (5=80-100%) | 5 (5=80-100%) | 5 (5=80-100%) | 5 (5=80-100%) | 3 (3=40-59%) | 3 (3=40-59%) | 3 (3=40-59%) | 5 (5=80-100%) | 5 (5=80-100%) |  |  |  |  |  |  |  |  |  |  |
| CC(=O)Nc1c(OC(F)(F)C(F)F)ccc(C(=O)Nc2nnnn2C)c1Cl [Compound 1.031] |  |  |  |  |  |  |  |  |  |  | 4 (4=60-79%) | 4 (4=60-79%) | 4 (4=60-79%) | 4 (4=60-79%) | 4 (4=60-79%) | 3 (3=40-59%) | 4 (4=60-79%) | 3 (3=40-59%) | 5 (5=80-100%) | 4 (4=60-79%) |
| Cn1nnnc1NC(=O)c1ccc(OC(F)(F)F)c(NC(=O)C2CC2(F)F)c1Cl (centres unmarked) [Compound 1.032] | 5 (5=80-100%) | 5 (5=80-100%) | 5 (5=80-100%) | 5 (5=80-100%) | 5 (5=80-100%) | 3 (3=40-59%) | 5 (5=80-100%) | 5 (5=80-100%) | 5 (5=80-100%) | 5 (5=80-100%) |  |  |  |  |  |  |  |  |  |  |
| Cn1nnnc1NC(=O)c1ccc(OC(F)(F)F)c(NC(=O)C2(C)CC2)c1Cl [Compound 1.033] | 5 (5=80-100%) | 5 (5=80-100%) | 5 (5=80-100%) | 5 (5=80-100%) | 5 (5=80-100%) | 5 (5=80-100%) | 5 (5=80-100%) | 5 (5=80-100%) | 5 (5=80-100%) | 5 (5=80-100%) |  |  |  |  |  |  |  |  |  |  |
| Cn1nnnc1NC(=O)c1ccc(OC(F)(F)F)c(NC(=O)CC2CC2)c1Cl [Compound 1.034] | 5 (5=80-100%) | 5 (5=80-100%) | 5 (5=80-100%) | 5 (5=80-100%) | 5 (5=80-100%) | 4 (4=60-79%) | 5 (5=80-100%) | 5 (5=80-100%) | 5 (5=80-100%) | 5 (5=80-100%) |  |  |  |  |  |  |  |  |  |  |
